{
  "source": "patent US12575567B2",
  "about": "“Fungicidal compositions” (priority 2020, dated 2026)",
  "key": {"Botrytis cinerea": {"system": "Botrytis cinerea", "assay": "Liquid culture test in well plates, Botrytis cinerea (Gray Mould), Example 1-1", "type": "cell-based", "settings": "72 hours; for (A) inhibition: Aureobasidin A alone", "procedure": "(§1) Mycelia fragments or conidia suspensions of a fungus, prepared either freshly from liquid cultures of the fungus or from cryogenic storage, are directly mixed into nutrient broth. DMSO solutions of the test compound (max. 10 mg/mL) is diluted with 0.025% Tween20 by factor 50 and 10 μL of this solution is pipetted into a microtiter plate (96-well format). […] The test plates are incubated in the dark at 24° C. and 96% relative humidity (rh). The inhibition of fungal growth is determined photometrically and visually after 3-7 days, depending on the pathosystem, and percent antifungal activity relative to the untreated check is calculated.\nConidia of the fungus from cryogenic storage were directly mixed into nutrient broth (PDB potato dextrose broth). After placing a DMSO solution of the test compositions into a microtiter plate (96-well format), the nutrient broth containing the fungal spores was added."}, "Alternaria solani": {"system": "Alternaria solani", "assay": "Liquid culture test in well plates, Alternaria solani (Early Blight of Tomato/Potato), Example 1-2", "type": "cell-based", "settings": "48 hours; for (A) inhibition: Aureobasidin A alone", "procedure": "as §1, with “The inhibition of fungal growth is determined photometrically and visually after 3-7 days, depending on the pathosystem, and percent antifungal activity relative to the untreated check is calculated.” left out\nConidia of the fungus from cryogenic storage were directly mixed into nutrient broth (PDB potato dextrose broth). After placing a DMSO solution of the test compositions into a microtiter plate (96-well format) the nutrient broth containing the fungal spores was added."}, "[1]": {"settings": "component (B) alone, 0.0031 ppm"}, "[2]": {"settings": "component (B) alone, 0.0016 ppm"}, "[3]": {"settings": "component (B) alone, 0.1250 ppm"}, "[4]": {"settings": "component (B) alone, 0.0125 ppm"}, "[5]": {"settings": "component (B) alone, 0.0250 ppm"}, "[6]": {"settings": "Alternaria solani, component (B) alone"}},
  "note": "Where “and” joins values, the source holds several entries; their conditions need not be identical. Equal values may be shown once. Numbered stars: 1 amine (or outer) side, 2 acyl side, 3 side chain; on linkers, the order of the positions; unused ones are H or OH. Square brackets hold non-standard residues; d marks the D form. Peptide text beside a SMILES is read from it. X1 = CC[C@@H](C)[C@@H](O[*:1])C(=O)[*:2]; NMeVal(β-OH) = CN[C@H](C(=O)O)C(C)(C)O; NMeF = CN[C@@H](Cc1ccccc1)C(=O)O; aIle = CC[C@@H](C)[C@H](N)C(=O)O; NMeV = CN[C@H](C(=O)O)C(C)C",
  "data": [
    {"smiles": "CC(C)c1ccc(Cl)cc1CN(C(=O)c1c(C(F)F)nn(C)c1F)C1CC1", "note": "[Isoflucypram, isoflucypram, reference compound]", "values": [
      {"measurement": "(B) inhibition", "setting": "Botrytis cinerea; [1]", "result": 37, "unit": "%"},
      {"measurement": "(B) inhibition", "setting": "Alternaria solani; [2]", "result": 22, "unit": "%"}
    ]},
    {"smiles": "CON(C(=O)c1cn(C)nc1C(F)F)C(C)Cc1c(Cl)cc(Cl)cc1Cl", "note": "(stereo not shown) [Pydiflumetofen, pydiflumetofen, reference compound]", "values": [
      {"measurement": "(B) inhibition", "setting": "Botrytis cinerea; [2]", "result": 27, "unit": "%"},
      {"measurement": "(B) inhibition", "setting": "Alternaria solani; component (B) alone, 0.0008 ppm", "result": 28, "unit": "%"},
      {"measurement": "(B) inhibition", "setting": "Alternaria solani; [1]", "result": 71, "unit": "%"}
    ]},
    {"smiles": "O=[N+]([O-])c1cc(C(F)(F)F)c(Cl)c([N+](=O)[O-])c1Nc1ncc(C(F)(F)F)cc1Cl", "note": "[Fluazinam, fluazinam]", "values": [
      {"measurement": "inhibition at 0.0006 ppm", "setting": "Botrytis cinerea; Botrytis cinerea, component (B) alone, 0.0006 ppm", "result": 3, "unit": "%"},
      {"measurement": "inhibition at 0.0012 ppm", "setting": "Botrytis cinerea; Botrytis cinerea, component (B) alone, 0.0012 ppm", "result": 6, "unit": "%"},
      {"measurement": "inhibition at 0.0025 ppm", "setting": "Botrytis cinerea; Botrytis cinerea, component (B) alone, 0.0025 ppm", "result": 8, "unit": "%"},
      {"measurement": "inhibition at 0.005 ppm", "setting": "Botrytis cinerea; Botrytis cinerea, component (B) alone, 0.0050 ppm", "result": 6, "unit": "%"},
      {"measurement": "inhibition at 0.01 ppm", "setting": "Botrytis cinerea; Botrytis cinerea, component (B) alone, 0.0100 ppm", "result": 8, "unit": "%"},
      {"measurement": "inhibition at 0.0003 ppm", "setting": "Alternaria solani; Alternaria solani, component (B) alone, 0.0003 ppm", "result": 11, "unit": "%"},
      {"measurement": "inhibition at 0.0025 ppm", "setting": "Alternaria solani; Alternaria solani, component (B) alone, 0.0025 ppm", "result": 11, "unit": "%"},
      {"measurement": "inhibition at 0.005 ppm", "setting": "Alternaria solani; Alternaria solani, component (B) alone, 0.0050 ppm", "result": 11, "unit": "%"}
    ]},
    {"smiles": "COc1ccnc(C(=O)N[C@@H](C)C(=O)O[C@@H](C)C(c2ccc(F)cc2)c2ccc(F)cc2)c1OC(C)=O", "note": "[Florylpicoxamid, florylpicoxamid]", "values": [
      {"measurement": "(B) inhibition", "setting": "Botrytis cinerea; component (B) alone, 0.0625 ppm", "result": 56, "unit": "%"},
      {"measurement": "(B) inhibition", "setting": "Botrytis cinerea; [3]", "result": 59, "unit": "%"}
    ]},
    {"smiles": "Cc1cccc(-n2nnn(C)c2=O)c1COc1ccn(-c2ccc(Cl)cc2)n1", "note": "[Metyltetrapole, metyltetrapole]", "values": [
      {"measurement": "(B) inhibition", "setting": "Botrytis cinerea; [4]", "result": 43, "unit": "%"},
      {"measurement": "(B) inhibition", "setting": "Botrytis cinerea; [5]", "result": 56, "unit": "%"},
      {"measurement": "(B) inhibition", "setting": "Alternaria solani; [4]", "result": 73, "unit": "%"}
    ]},
    {"smiles": "CC[C@@H](C)[C@@H]1NC(=O)[C@@H]2CCCN2C(=O)[C@H](Cc2ccccc2)N(C)C(=O)[C@H](Cc2ccccc2)NC(=O)[C@H](C(C)C)N(C)C(=O)[C@@H]([C@H](C)CC)OC(=O)[C@H](C(C)(C)O)N(C)C(=O)[C@H](CC(C)C)NC(=O)[C@H](C(C)C)N(C)C1=O", "note": "[Aureobasidin A] (cyclo(F[NMeF]P[aIle][NMeV]L[NMeVal(β-OH)][X1][NMeV]))", "values": [
      {"measurement": "(A) inhibition", "setting": "Botrytis cinerea; 0.0002 ppm", "result": 0, "unit": "%"},
      {"measurement": "(A) inhibition", "setting": "Botrytis cinerea; 0.0003 ppm", "result": "0% and 3%"},
      {"measurement": "(A) inhibition", "setting": "Botrytis cinerea; 0.0006 ppm", "result": 0, "unit": "%"},
      {"measurement": "(A) inhibition", "setting": "Botrytis cinerea; 0.0012 ppm", "result": "0% and 7% and 8%"},
      {"measurement": "(A) inhibition", "setting": "Botrytis cinerea; 0.0100 ppm", "result": "23% and 25% and 24%"},
      {"measurement": "(A) inhibition", "setting": "Botrytis cinerea; 0.0200 ppm", "result": "38% and 50% and 33%"},
      {"measurement": "(A) inhibition", "setting": "Botrytis cinerea; 0.040 ppm", "result": 85, "unit": "%"},
      {"measurement": "(A) inhibition", "setting": "Alternaria solani; 0.0001 ppm", "result": "8% and 2% and 0%"},
      {"measurement": "(A) inhibition", "setting": "Alternaria solani; 0.0002 ppm", "result": "2% and 0%"},
      {"measurement": "(A) inhibition", "setting": "Alternaria solani; 0.0003 ppm", "result": "0% and 3%"},
      {"measurement": "(A) inhibition", "setting": "Alternaria solani; 0.0006 ppm", "result": "9% and 6% and 0%"},
      {"measurement": "(A) inhibition", "setting": "Alternaria solani; 0.0012 ppm", "result": 0, "unit": "%"},
      {"measurement": "(A) inhibition", "setting": "Alternaria solani; 0.0025 ppm", "result": "2% and 1% and 0%"},
      {"measurement": "(A) inhibition", "setting": "Alternaria solani; 0.005 ppm", "result": 12, "unit": "%"},
      {"measurement": "(A) inhibition", "setting": "Alternaria solani; 0.0100 ppm", "result": 0, "unit": "%"},
      {"measurement": "(A) inhibition", "setting": "Alternaria solani; 0.040 ppm", "result": 46, "unit": "%"}
    ]},
    {"smiles": "CO/C=C(/C(=O)OC)c1ccccc1Oc1cc(Oc2ccccc2C#N)ncn1", "note": "[Azoxystrobin, azoxystrobin]", "values": [
      {"measurement": "(B) inhibition", "setting": "Botrytis cinerea; component (B) alone, 0.0313 ppm", "result": 31, "unit": "%"},
      {"measurement": "(B) inhibition", "setting": "Botrytis cinerea; [3]", "result": 61, "unit": "%"}
    ]},
    {"smiles": "O=C(NCCc1ncc(C(F)(F)F)cc1Cl)c1ccccc1C(F)(F)F", "note": "[Fluopyram, fluopyram, reference compound]", "values": [
      {"measurement": "inhibition at 0.125 ppm", "setting": "Botrytis cinerea; Botrytis cinerea, component (B) alone, 0.1250 ppm", "result": 42, "unit": "%"},
      {"measurement": "inhibition at 0.0313 ppm", "setting": "Alternaria solani; [6]", "result": 49, "unit": "%"},
      {"measurement": "inhibition at 0.0625 ppm", "setting": "Alternaria solani; Alternaria solani, component (B) alone, 0.0625 ppm", "result": 63, "unit": "%"}
    ]},
    {"smiles": "CON=C(C(=O)OC)c1ccccc1CON=C(C)c1cccc(C(F)(F)F)c1", "note": "[Trifloxystrobin, trifloxystrobin, reference compound]", "values": [
      {"measurement": "inhibition at […]", "setting": "Alternaria solani; Alternaria solani, component (B) alone, 0.0078 ppm", "result": 44, "unit": "%"},
      {"measurement": "inhibition at 0.0313 ppm", "setting": "Alternaria solani; [6]", "result": 71, "unit": "%"}
    ]},
    {"smiles": "Cn1cc(C(=O)Nc2cccc3c2[C@@H]2CC[C@H]3C2=C(Cl)Cl)c(C(F)F)n1", "note": "(racemic) [Benzovindiflupyr, benzovindiflupyr]", "values": [
      {"measurement": "(B) inhibition", "setting": "Botrytis cinerea; [1]", "result": 26, "unit": "%"},
      {"measurement": "(B) inhibition", "setting": "Botrytis cinerea; [5]", "result": 57, "unit": "%"}
    ]}
  ]
}
